From publication PMC4447944 (The Journal of Biological Chemistry, 2015)

Legend:
hALK(L1196M) = target: T1, hALK(L1196M) (Homo sapiens, UniProt Q9UM73, L1196M); test: KINOMEscan; assay type: binding
T1 construct: purchased DiscoverX

hCSF1R-autoinhib = target: T2, hCSF1R-autoinhib (Homo sapiens, UniProt P07333); test: KINOMEscan; assay type: binding; settings: read-out: Inhibition at the 20 μM dose
T2 construct: purchased DiscoverX (KINOMEscan platform)

hFGFR4 = target: T3, hFGFR4 (Homo sapiens, UniProt P22455); test: KINOMEscan; assay type: binding
T3 construct: purchased DiscoverX
T3 sequence (P22455 22-802): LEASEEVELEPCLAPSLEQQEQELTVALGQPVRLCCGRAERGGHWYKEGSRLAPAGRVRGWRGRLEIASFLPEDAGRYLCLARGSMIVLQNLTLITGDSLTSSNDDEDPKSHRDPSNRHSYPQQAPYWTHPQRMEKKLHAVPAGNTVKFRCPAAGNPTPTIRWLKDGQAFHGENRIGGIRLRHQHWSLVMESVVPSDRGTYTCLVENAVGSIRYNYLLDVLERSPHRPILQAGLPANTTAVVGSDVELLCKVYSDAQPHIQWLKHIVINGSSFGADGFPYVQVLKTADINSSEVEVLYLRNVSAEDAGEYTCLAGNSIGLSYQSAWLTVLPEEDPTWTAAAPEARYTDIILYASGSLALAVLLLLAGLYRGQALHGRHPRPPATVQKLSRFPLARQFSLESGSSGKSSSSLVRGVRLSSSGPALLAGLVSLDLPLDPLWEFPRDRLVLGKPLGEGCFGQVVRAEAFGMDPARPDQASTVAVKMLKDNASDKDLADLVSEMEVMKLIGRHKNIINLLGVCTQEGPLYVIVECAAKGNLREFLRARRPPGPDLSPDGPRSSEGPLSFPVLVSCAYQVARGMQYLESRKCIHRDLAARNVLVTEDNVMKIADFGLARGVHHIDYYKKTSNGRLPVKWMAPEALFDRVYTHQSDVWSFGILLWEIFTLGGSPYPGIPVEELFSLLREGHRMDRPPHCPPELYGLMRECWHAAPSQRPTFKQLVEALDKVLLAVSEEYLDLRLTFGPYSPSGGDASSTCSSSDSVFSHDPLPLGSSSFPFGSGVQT

hGCN2(Kin.Dom.2,S808G) = target: T4, hGCN2(Kin.Dom.2,S808G) (Homo sapiens, UniProt Q9P2K8, S808G); test: KINOMEscan; assay type: binding
T4 construct: hGCN2(Kin.Dom.2,S808G); purchased DiscoverX
T4 sequence (Q9P2K8 590-1001 S808G limits assumed): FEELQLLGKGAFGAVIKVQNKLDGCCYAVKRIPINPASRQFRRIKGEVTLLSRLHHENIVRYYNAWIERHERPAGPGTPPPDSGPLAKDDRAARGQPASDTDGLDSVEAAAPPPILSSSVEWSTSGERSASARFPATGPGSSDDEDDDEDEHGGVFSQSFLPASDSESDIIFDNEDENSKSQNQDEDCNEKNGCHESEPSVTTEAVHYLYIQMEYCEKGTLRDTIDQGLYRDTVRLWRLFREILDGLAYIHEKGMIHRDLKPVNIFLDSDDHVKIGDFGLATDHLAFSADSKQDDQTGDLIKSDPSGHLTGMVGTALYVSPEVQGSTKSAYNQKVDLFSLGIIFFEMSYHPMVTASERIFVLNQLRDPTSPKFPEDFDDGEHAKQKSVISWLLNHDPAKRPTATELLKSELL

hMAP3K2 = target: T5, hMAP3K2 (Homo sapiens, UniProt Q9Y2U5); test: KINOMEscan; assay type: binding
T5 construct: purchased DiscoverX (KINOMEscan platform)

[1] = target: T6, hRPS6KA4(Kin.Dom.2-C-term) (Homo sapiens, UniProt O75676); test: KINOMEscan; assay type: binding
T6 construct: hRPS6KA4(Kin.Dom.2-C-term); purchased DiscoverX (KINOMEscan platform)
T6 sequence (O75676 411-674 limits assumed): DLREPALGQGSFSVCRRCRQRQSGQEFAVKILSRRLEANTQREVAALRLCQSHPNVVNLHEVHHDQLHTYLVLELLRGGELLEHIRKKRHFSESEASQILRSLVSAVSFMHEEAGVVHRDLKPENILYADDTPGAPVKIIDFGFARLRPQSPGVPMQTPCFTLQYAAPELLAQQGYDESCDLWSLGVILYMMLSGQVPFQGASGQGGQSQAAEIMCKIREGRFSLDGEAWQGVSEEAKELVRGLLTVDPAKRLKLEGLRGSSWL

hRSK3(Kin.Dom.1-N-term) = target: T7, hRSK3(Kin.Dom.1-N-term) (Homo sapiens, UniProt Q15349); test: KINOMEscan; assay type: binding
T7 construct: hRSK3(Kin.Dom.1-N-term); purchased DiscoverX (KINOMEscan platform)
T7 sequence (Q15349 59-318 limits assumed): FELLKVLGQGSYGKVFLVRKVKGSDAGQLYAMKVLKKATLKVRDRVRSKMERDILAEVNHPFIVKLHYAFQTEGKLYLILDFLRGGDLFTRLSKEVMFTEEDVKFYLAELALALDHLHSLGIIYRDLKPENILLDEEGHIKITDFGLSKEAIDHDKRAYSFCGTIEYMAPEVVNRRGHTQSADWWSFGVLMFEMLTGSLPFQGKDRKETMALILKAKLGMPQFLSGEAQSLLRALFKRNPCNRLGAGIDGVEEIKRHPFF

hYSK1 = target: T8, hYSK1 (Homo sapiens, UniProt O00506); test: KINOMEscan; assay type: binding
T8 construct: purchased DiscoverX
T8 sequence (O00506 whole entry): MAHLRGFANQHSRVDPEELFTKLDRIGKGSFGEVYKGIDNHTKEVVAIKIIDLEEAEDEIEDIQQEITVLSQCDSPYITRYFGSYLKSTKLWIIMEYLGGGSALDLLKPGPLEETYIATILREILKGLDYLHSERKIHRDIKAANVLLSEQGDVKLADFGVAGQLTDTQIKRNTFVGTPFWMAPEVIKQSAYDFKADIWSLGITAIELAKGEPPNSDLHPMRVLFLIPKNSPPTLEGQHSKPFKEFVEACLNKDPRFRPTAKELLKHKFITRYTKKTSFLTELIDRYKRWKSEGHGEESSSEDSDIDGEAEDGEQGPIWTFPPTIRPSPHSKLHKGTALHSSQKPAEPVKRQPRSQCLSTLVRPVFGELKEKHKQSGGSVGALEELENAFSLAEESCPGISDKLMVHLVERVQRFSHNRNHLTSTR

hADRβ1 = hADRβ1 (Homo sapiens, UniProt P08588); test: β-arrestin Antagonist (Eurofins-CEREP); settings: read-out: % Effect, Inhibition
Chain of hADRβ1 (P08588 whole entry): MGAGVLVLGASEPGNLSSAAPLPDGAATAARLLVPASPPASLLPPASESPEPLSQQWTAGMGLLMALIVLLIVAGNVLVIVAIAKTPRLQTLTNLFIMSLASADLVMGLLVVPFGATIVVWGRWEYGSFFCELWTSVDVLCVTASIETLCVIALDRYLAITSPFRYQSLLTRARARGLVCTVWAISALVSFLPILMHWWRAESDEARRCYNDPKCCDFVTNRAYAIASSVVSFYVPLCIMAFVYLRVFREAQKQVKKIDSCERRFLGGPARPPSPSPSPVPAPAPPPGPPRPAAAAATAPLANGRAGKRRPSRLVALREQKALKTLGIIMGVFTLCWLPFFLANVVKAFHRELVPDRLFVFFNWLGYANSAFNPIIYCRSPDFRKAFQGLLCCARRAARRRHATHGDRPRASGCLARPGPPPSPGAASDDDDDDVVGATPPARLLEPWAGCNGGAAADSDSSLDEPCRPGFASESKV

T2 sequence (P07333 539-972 limits assumed): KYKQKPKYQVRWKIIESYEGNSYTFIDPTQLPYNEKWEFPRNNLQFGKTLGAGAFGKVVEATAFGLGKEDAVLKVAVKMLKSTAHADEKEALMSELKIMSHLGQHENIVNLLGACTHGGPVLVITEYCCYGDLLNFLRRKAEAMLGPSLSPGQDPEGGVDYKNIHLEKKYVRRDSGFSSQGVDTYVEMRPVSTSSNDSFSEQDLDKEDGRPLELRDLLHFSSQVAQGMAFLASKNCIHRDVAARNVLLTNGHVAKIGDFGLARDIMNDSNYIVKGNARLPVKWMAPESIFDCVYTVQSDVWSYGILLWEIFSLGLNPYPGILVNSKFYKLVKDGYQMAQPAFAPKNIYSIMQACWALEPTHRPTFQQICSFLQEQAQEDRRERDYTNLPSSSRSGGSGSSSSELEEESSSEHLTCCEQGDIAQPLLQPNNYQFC
T1 sequence (Q9UM73 19-1620 L1196M): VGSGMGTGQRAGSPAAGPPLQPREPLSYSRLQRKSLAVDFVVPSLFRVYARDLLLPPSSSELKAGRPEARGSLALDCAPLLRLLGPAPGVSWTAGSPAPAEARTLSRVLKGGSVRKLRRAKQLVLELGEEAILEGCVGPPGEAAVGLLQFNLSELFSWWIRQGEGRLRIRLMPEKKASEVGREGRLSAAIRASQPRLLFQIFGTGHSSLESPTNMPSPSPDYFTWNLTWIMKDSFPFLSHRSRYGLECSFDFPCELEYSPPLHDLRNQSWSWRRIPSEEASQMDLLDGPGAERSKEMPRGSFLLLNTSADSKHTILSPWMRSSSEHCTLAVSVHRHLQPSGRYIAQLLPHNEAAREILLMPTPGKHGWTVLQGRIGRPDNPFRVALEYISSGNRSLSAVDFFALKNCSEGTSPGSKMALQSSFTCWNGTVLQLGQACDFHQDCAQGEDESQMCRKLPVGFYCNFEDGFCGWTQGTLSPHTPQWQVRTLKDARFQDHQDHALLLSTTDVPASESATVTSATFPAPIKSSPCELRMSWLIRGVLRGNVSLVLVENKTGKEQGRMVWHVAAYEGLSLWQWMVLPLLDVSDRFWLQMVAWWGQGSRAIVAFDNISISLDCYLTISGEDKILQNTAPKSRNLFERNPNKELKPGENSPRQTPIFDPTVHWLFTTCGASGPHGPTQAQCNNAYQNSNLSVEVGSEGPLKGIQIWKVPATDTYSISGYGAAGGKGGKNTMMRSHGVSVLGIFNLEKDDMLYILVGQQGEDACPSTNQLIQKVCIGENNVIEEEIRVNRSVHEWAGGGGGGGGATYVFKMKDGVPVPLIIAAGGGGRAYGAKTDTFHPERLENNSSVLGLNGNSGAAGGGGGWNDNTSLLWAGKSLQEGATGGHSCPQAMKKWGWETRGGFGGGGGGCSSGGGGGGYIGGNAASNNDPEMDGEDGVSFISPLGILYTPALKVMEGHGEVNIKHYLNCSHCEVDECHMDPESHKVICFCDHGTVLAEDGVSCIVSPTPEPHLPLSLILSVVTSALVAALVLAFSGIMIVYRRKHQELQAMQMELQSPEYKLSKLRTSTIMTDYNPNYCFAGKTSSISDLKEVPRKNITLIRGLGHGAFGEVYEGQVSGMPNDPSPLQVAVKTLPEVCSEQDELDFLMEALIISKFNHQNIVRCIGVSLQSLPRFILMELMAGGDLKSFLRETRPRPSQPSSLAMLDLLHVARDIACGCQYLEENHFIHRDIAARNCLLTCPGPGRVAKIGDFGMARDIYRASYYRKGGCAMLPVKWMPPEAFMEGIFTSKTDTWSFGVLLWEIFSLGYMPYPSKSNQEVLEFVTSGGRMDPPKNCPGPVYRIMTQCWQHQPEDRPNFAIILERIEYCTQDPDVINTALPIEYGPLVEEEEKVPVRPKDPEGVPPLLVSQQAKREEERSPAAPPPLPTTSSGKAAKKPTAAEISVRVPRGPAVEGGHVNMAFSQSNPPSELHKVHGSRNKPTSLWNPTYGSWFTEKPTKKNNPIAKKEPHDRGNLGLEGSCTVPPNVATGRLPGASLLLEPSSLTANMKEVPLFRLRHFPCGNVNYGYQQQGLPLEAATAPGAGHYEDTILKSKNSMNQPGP

## Cc1cn(CCN2CCN(c3ccccc3-c3cc(C#N)cc(C(=O)NCCCN4CCCC4)c3)CC2)c2ccccc12 [LLY-507, 3-cyano-5-{2-[4-[2-(3-methylindol-1-yl)ethyl]piperazin-1-yl]-phenyl}-N-[(3-pyrrolidin-1-yl)propyl]benzamide]
hALK(L1196M)
  IC50: > 20 µM
hCSF1R-autoinhib
  inhibition at 20 µM: < 50%
hFGFR4
  IC50: > 20 µM
hGCN2(Kin.Dom.2,S808G)
  IC50: > 20 µM
hMAP3K2
  IC50: > 20 µM
[1]
  IC50: > 20 µM
hRSK3(Kin.Dom.1-N-term)
  IC50: > 20 µM
hYSK1
  IC50: > 20 µM
hADRβ1
  inhibition at 10 µM: -6%
